Measured values as given in patent US12577559B2, “Method for creating a cDNA sequencing library” (priority 2019, dated 2026).

Test system: A549 cell line
Test: RIF-Seq gene expression screen of compounds in A549 cells, 384 well plate
Format: cell-based
Procedure: To evaluate if RIF-Seq can be used to detect changes in gene expression due to action of compounds (drugs) and if gene expression signatures can be used to predict mechanism of action of the compound, the inventors performed screen of two compounds in various concentration (delivered to cells in DMSO) and controls (DMSO alone) in high throughput fashion on automated platforms. A549 cell line was seeded using automatic cell dispenser onto low volume imaging plate to concentration of 2 000 cell per well. After over-night incubation, drugs were manually added to cells according to schematics presented in the FIG. 16A, cells were fixated and RIF-Seq protocol was executed using automated robotic liquid handlers. […] Using Gene Set Enrichment Analysis (GESA) inventors compared the differential gene expression data of samples treated with 8.3 μM vorinostat and controls and which differently expressed genes are annotated to pre-defined gene sets contained in the Broad Institute “Hallmarks” list (FIG. 16D).
Cells were cultured in T25 and T75 cell culturing flasks at 37° C. under 5% CO2 in RPMI1640 medium (HeLa, BjHTERT, MCF-7) or F12K medium (A549) with 10% complete fetal bovine serum (FBS), penicillin-streptomycin, and glutamine, up to 80% confluency. Before seeding cells into plates, cells were washed with PBS and dislodged using Tripsin-EDTA and resuspended in fresh medium to a concentration of 66 cells/μL. Manually (100 μL volume, 96 well plate) or by using automatic cell dispenser (30 μL volume, 384 well plate) cells were transferred into desired vessels and incubated over-night. For 96 well plates, the cell culture media were removed and plate was washed twice with 100 μl cold PBS in each well. Then 100 μl 3.7% PFA solution was added to each well and incubated at room temperature for 15 min. For 384 well plates, […] of freshly prepared 16% formaldehyde was added to 30 μl of cell media to obtain a final formaldehyde concentration of 3.7%. Fixation was performed for 20 minutes at room temperature. […]

O=C(CCCCCCC(=O)Nc1ccccc1)NO [vorinostat]
Volcano plot of genes over- and under-expressed upon treatment (8.3 μM concentration vs DMSO controls): number of genes with significantly altered expression
Gene Set Enrichment Analysis (GESA) of differential gene expression against Broad Institute "Hallmarks" gene sets (8.3 μM vorinostat vs DMSO controls): down-regulation of the cell cycle and p53 pathways, E2F targets, cell cycle checkpoints and MYC targets
PCA analyses of gene expression of compound-grouped samples vs DMSO controls (various concentrations): Gradient of differences
